Tests used:
[1] = tested on: IL-4, IL-6, IL-13, TNF-α and MIP-2; details: re-stimulated splenocytes of vaccinated mice; dietary DON
CD25+ FoxP3+ Treg cells = details: spleen of vaccinated mice; DON in the diet
CXCR3+Th1 cells = details: spleen; DON in the diet
T1ST2+Th2 cells = details: spleen; DON in the diet
[2] = tested on: vaccine-specific immunoglobulin; details: vaccinated mice; DON in the diet

Compound: CC1=C[C@H]2O[C@@H]3[C@H](O)C[C@](C)([C@@]2(CO)[C@H](O)C1=O)[C@]31CO1 [DON, deoxynivalenol]
- concentrations of IL-4, IL-6, IL-13, TNF-α and MIP-2 in cell supernatants [1]: No significant effect
- percentage of CD25+ FoxP3+ Treg cells (CD25+ FoxP3+ Treg cells): not significantly affected
- effect on CXCR3+Th1 cells (CXCR3+Th1 cells): No significant effect
- effect on T1ST2+Th2 cells (T1ST2+Th2 cells): No significant effect
- vaccine-specific immunoglobulin production [2]: reduced
